Experimental findings from the supplement of paper PMC10307832 are described below.

Assay in all cases: relative viability (nuclei count vs DMSO), 5 days (fraction); higher = more cells survive
Compound in assay [1]: COc1cc2nccc(Oc3ccc(NC(=O)C4(C(=O)Nc5ccc(F)cc5)CC4)cc3)c2cc1OC [Cabozantinib] + C[C@@H](Oc1cc(-c2cnn(C3CCNCC3)c2)cnc1N)c1c(Cl)ccc(F)c1Cl [Crizotinib] (partner 1 µM)
In a few lines:
(§1)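 Relative viability equals treated-well nuclei counts divided by vehicle-well nuclei counts. Counts came from 4× images of lung cancer cell lines grown in 1536-well plates for 5 days after pin-tool dosing on the day after seeding. Dosing used one drug alone or a fixed anchor-drug dose plus five library-drug doses (not always all listed) in √10 steps, and values are medians of duplicate plates.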

Compound in the assay “Zosuquidar + Lapatinib”: O[C@@H](COc1cccc2ncccc12)CN1CCN([C@@H]2c3ccccc3[C@@H]3[C@H](c4ccccc42)C3(F)F)CC1 [Zosuquidar] + CS(=O)(=O)CCNCc1ccc(-c2ccc3ncnc(Nc4ccc(OCc5cccc(F)c5)c(Cl)c4)c3c2)o1 [Lapatinib] (partner 2 µM)
The gist of the method: as §1

Compound in the assay “Kobe2602 + Phenformin”: C1=CC(=CC=C1NC(=S)NNC2=C(C=C(C=C2[N+](=O)[O-])C(F)(F)F)[N+](=O)[O-])F [Kobe2602] + N=C(N)NC(=N)NCCc1ccccc1 [Phenformin] (partner 250 µM)
The gist of the method: as §1

Compound in assay [2]: COc1cc2nccc(Oc3ccc(NC(=O)C4(C(=O)Nc5ccc(F)cc5)CC4)cc3)c2cc1OC [Cabozantinib] + CCNC(=O)c1noc(-c2cc(C(C)C)c(O)cc2O)c1-c1ccc(CN2CCOCC2)cc1 [Luminespib] (partner 0.01 µM)
The gist of the method:
as §1

Take NCI-H1299: the relative viability in assay [1] (first compound 0.02 µM) came to 0.977; in assay [1] (first compound 0.06325 µM) it was 0.998; in assay [1] (first compound 0.2 µM), 0.648; in assay [1] (first compound 0.6325 µM) it was 0.973; in assay [1] (first compound 2 µM), 0.993; in the assay with Zosuquidar + Lapatinib (first compound 0.01 µM), 0.971. The relative viability with Zosuquidar + Lapatinib (first compound 0.03162 µM) stood at 0.981; in the assay with Zosuquidar + Lapatinib (first compound 0.1 µM), 0.944; with Zosuquidar + Lapatinib (first compound 0.3162 µM), 1.01; with Zosuquidar + Lapatinib (first compound 1 µM), 0.958.

In the case of NCI-H1395, the relative viability was determined as 0.484 with Kobe2602 + Phenformin (first compound 0.2 µM); 0.435 with Kobe2602 + Phenformin (first compound 0.6325 µM); 0.453 with Kobe2602 + Phenformin (first compound 2 µM); 0.451 with Kobe2602 + Phenformin (first compound 6.325 µM); 0.456 in the assay with Kobe2602 + Phenformin (first compound 20 µM); 0.744 in assay [2] (first compound 0.02 µM). Further, the relative viability in assay [2] (first compound 0.06325 µM) was 0.978; in assay [2] (first compound 0.2 µM) it was 0.873; in assay [2] (first compound 0.6325 µM), 0.619; in assay [2] (first compound 2 µM), 0.547; in the assay with Zosuquidar + Lapatinib (first compound 0.01 µM), 1.03; in the assay with Zosuquidar + Lapatinib (first compound 0.03162 µM) it was 0.903. The figures for the relative viability with Zosuquidar + Lapatinib (first compound 0.1 µM), with Zosuquidar + Lapatinib (first compound 0.3162 µM) and with Zosuquidar + Lapatinib (first compound 1 µM) were 0.957, 1.54 and 1.04, respectively.

As for NCI-H1623, the relative viability with Kobe2602 + Phenformin (first compound 0.2 µM) was determined as 0.633; with Kobe2602 + Phenformin (first compound 0.6325 µM), 0.571; with Kobe2602 + Phenformin (first compound 2 µM), 0.563; in the assay with Kobe2602 + Phenformin (first compound 6.325 µM), 0.555; with Kobe2602 + Phenformin (first compound 20 µM) it was 0.589; in assay [2] (first compound 0.02 µM) it was 0.53. The relative viability in assay [2] (first compound 0.06325 µM) came out at 0.497; in assay [2] (first compound 0.2 µM), 0.47; in assay [2] (first compound 0.6325 µM) it was 0.446; in assay [2] (first compound 2 µM) it was 0.492.

Turning to NCI-H1703, the relative viability was found to be 0.296 in assay [1] (first compound 0.06325 µM); 0.172 in assay [1] (first compound 0.2 µM); 0.249 in assay [1] (first compound 0.6325 µM); 0.175 in assay [1] (first compound 2 µM); 1.17 with Zosuquidar + Lapatinib (first compound 0.01 µM); 1.27 with Zosuquidar + Lapatinib (first compound 0.03162 µM). Further, the relative viability with Zosuquidar + Lapatinib (first compound 0.1 µM) came to 0.96; in the assay with Zosuquidar + Lapatinib (first compound 0.3162 µM), 1.45; in the assay with Zosuquidar + Lapatinib (first compound 1 µM) it was 1.16.

With NCI-H1793, the relative viability in the assay with Kobe2602 + Phenformin (first compound 0.2 µM) was 0.33; with Kobe2602 + Phenformin (first compound 0.6325 µM) it was 0.398; with Kobe2602 + Phenformin (first compound 2 µM), 0.399; in the assay with Kobe2602 + Phenformin (first compound 6.325 µM), 0.333; with Kobe2602 + Phenformin (first compound 20 µM), 0.446; in assay [2] (first compound 0.02 µM), 0.591. Further, the relative viability turned out to be 0.168 in assay [2] (first compound 0.06325 µM); 0.144 in assay [2] (first compound 0.2 µM); 0.202 in assay [2] (first compound 0.6325 µM); 0.155 in assay [2] (first compound 2 µM); 0.916 in the assay with Zosuquidar + Lapatinib (first compound 0.01 µM); 0.625 with Zosuquidar + Lapatinib (first compound 0.03162 µM). Further, the relative viability with Zosuquidar + Lapatinib (first compound 0.3162 µM) was 0.835; in the assay with Zosuquidar + Lapatinib (first compound 1 µM), 1.11.

As to NCI-H2342, the relative viability with Kobe2602 + Phenformin (first compound 0.2 µM) stood at 0.658; in the assay with Kobe2602 + Phenformin (first compound 0.6325 µM), 0.607; in the assay with Kobe2602 + Phenformin (first compound 2 µM) it was 0.563; in the assay with Kobe2602 + Phenformin (first compound 6.325 µM), 0.553; with Kobe2602 + Phenformin (first compound 20 µM), 0.662; in assay [2] (first compound 0.02 µM), 0.673. Besides, the relative viability in assay [2] (first compound 0.06325 µM) was 0.837; in assay [2] (first compound 0.2 µM) it was 0.864; in assay [2] (first compound 0.6325 µM), 0.604; in assay [2] (first compound 2 µM), 0.591.

As to SW 900, the relative viability with Kobe2602 + Phenformin (first compound 0.2 µM) came to 0.609; with Kobe2602 + Phenformin (first compound 0.6325 µM), 0.843; in the assay with Kobe2602 + Phenformin (first compound 2 µM), 0.521; with Kobe2602 + Phenformin (first compound 6.325 µM), 0.691; with Kobe2602 + Phenformin (first compound 20 µM), 0.775; in assay [2] (first compound 0.02 µM), 0.17. Further, the relative viability in assay [2] (first compound 0.06325 µM) was determined as 0.19; in assay [2] (first compound 0.2 µM) it was 0.2; in assay [2] (first compound 0.6325 µM) it was 0.177; in assay [2] (first compound 2 µM) it was 0.166.
